# Literature values, collected in patent US20070281020A1, “PHARMACEUTICAL COMPOSITIONS FOR SUSTAINED RELEASE OF PHENYLEPHRINE” (priority 2006, published 2007).
# Settings: active metabolite of loratadine
compound,measurement,value
Clc1ccc2c(c1)CCc1cccnc1C2=C1CCNCC1 [desloratadine],half-life (t1/2),15 to 19 h
